Reference: patent US20260223852A1, “FUNGICIDAL COMPOSITIONS” (SYNGENTA CROP PROTECTION AG, priority 2023, published 2026)

How the values were obtained:
[1] = tested on: Puccinia recondita f. sp. tritici; experiment: Example B15: Puccinia recondita f. sp. tritici / wheat / leaf disc preventative (brown rust); type: in vivo; details: 200 ppm, compared to untreated control
Protocol: Example B15: Puccinia recondita f. Sp. Tritici/Wheat/Leaf Disc Preventative (Brown Rust)
Wheat leaf segments cv. Kanzler are placed on agar in multiwell plates (24-well format) and sprayed with the formulated test compound diluted in water. The leaf disks are inoculated with a spore suspension of the fungus 1 day after application. The inoculated leaf segments are incubated at 19° C. and 75% rh under a light regime of 12 h light/12 h darkness in a climate cabinet and the activity of a compound is assessed as percent disease control compared to untreated when an appropriate level of disease damage appears in untreated check leaf segments (7-9 days after application).

[2] = tested on: Botryotinia fuckeliana (Botrytis cinerea); experiment: Example B2: Botryotinia fuckeliana (Botrytis cinerea) / liquid culture (gray mould); type: cell-based; details: compared to untreated control
Protocol: Example B2: Botryotinia fuckeliana (Botrytis cinerea)/Liquid Culture (Gray Mould)
(§1) Conidia of the fungus from cryogenic storage are directly mixed into nutrient broth (Vogels broth). After placing a (DMSO) solution of test compound into a microtiter plate (96-well format), the nutrient broth containing the fungal spores is added. The test plates are incubated at 24° C. and the inhibition of growth is determined photometrically 3-4 days after application.

[3] = tested on: Glomerella lagenarium (Colletotrichum lagenarium); experiment: Example B5: Glomerella lagenarium (Colletotrichum lagenarium) / liquid culture (anthracnose); type: cell-based; details: Colletotrichum orbiculare, compared to untreated control
Protocol: Example B5: Glomerella Lagenarium (Colletotrichum Lagenarium)/Liquid Culture (Anthracnose)
as §1, with “(PDB potato dextrose” for “(Vogels”, “measured” for “determined”

[4] = tested on: Blumeria graminis f. sp. tritici (Erysiphe graminis f. sp. tritici); experiment: Example B7: Blumeria graminis f. sp. tritici / wheat / leaf disc preventative (powdery mildew on wheat); type: in vivo; details: foliar, compared to untreated control
Protocol: Example B7: Blumeria Graminis f. Sp. Tritici (Erysiphe graminis f. Sp. Tritici)/Wheat/Leaf Disc Preventative (Powdery Mildew on Wheat)
Wheat leaf segments cv. Kanzler are placed on agar in a multiwell plate (24-well format) and sprayed with the formulated test compound diluted in water. The leaf disks are inoculated by shaking powdery mildew infected plants above the test plates 1 day after application. The inoculated leaf disks are incubated at 20° C. and 60% rh under a light regime of 24 h darkness followed by 12 h light/12 h darkness in a climate chamber and the activity of a compound is assessed as percent disease control compared to untreated when an appropriate level of disease damage appears on untreated check leaf segments (6-8 days after application).

[5] = tested on: Fusarium culmorum; experiment: microbe, parasite or virus in culture; type: cell-based; details: read-out: control of Fusarium culmorum
[6] = tested on: Monographella nivalis (Microdochium nivale); experiment: Example B12: Monographella nivalis (Microdochium nivale) / liquid culture (foot rot cereals); type: cell-based; details: compared to untreated control
Protocol: Example B12: Monographella Nivalis (Microdochium Nivale)/Liquid Culture (Foot Rot Cereals)
as §1, with “(PDB potato dextrose” for “(Vogels”, “4-5” for “3-4”

[7] = tested on: Mycosphaerella arachidis (Cercospora arachidicola); experiment: Example B13: Mycosphaerella arachidis (Cercospora arachidicola) / liquid culture (early leaf spot); type: cell-based; details: compared to untreated control
Protocol: Example B13: Mycosphaerella arachidis (Cercospora arachidicola)/Liquid Culture (Early Leaf Spot)
as §1, with “(PDB potato dextrose” for “(Vogels”, “4-5” for “3-4”

[8] = tested on: Mycosphaerella graminicola (Septoria tritici); experiment: Example B19: Mycosphaerella graminicola (Septoria tritici) / liquid culture (Septoria blotch); type: cell-based; details: Zymoseptoria tritici, compared to untreated control
Protocol: Example B19: Mycosphaerella graminicola (Septoria tritici)/Liquid Culture (Septoria Blotch)
as §1, with “(PDB potato dextrose” for “(Vogels”, “4-5” for “3-4”

[9] = tested on: Pyrenophora teres; experiment: Example B17: Pyrenophora teres / barley / leaf disc preventative (net blotch); type: in vivo; details: foliar, compared to untreated control
Protocol: Example B17: Pyrenophora teres/Barley/Leaf Disc Preventative (Net Blotch)
Barley leaf segments cv. Hasso are placed on agar in a multiwell plate (24-well format) and sprayed with the formulated test compound diluted in water. The leaf segments are inoculated with a spore suspension of the fungus 2 days after application. The inoculated leaf segments are incubated at 20° C. and 65% rh under a light regime of 12 h light/12 h darkness in a climate cabinet and the activity of a compound is assessed as disease control compared to untreated when an appropriate level of disease damage appears in untreated check leaf segments (5-7 days after application).

Row | SMILES | control of Puccinia recondita f. sp. tritici [1] | inhibition of growth at 20 ppm [2] | inhibition of growth at 20 ppm [3] | pest or weed control at 200 ppm [4] | inhibition of growth at 20 ppm [5] | inhibition of growth at 20 ppm [6] | inhibition of growth at 20 ppm [7] | inhibition of growth at 20 ppm [8] | pest or weed control at 200 ppm [9]
1 | Cn1cc(C(C)(CNC(=O)c2cc(-c3ccc(F)cc3F)on2)c2cccc(Cl)n2)cn1 (centres unmarked) [X.01, N-[2-(6-chloro-2-pyridyl)-2-(1-methylpyrazol-4-yl)propyl]-5-(2,4-difluorophenyl)isoxazole-3-carboxamide] | at least 80% | – | – | – | – | – | – | – | –
2 | Cn1cc(C(C)(CNC(=O)c2cc(-c3ncc(F)cc3F)on2)c2cccc(Cl)n2)cn1 (centres unmarked) [X.11, N-[2-(6-chloro-2-pyridyl)-2-(1-methylpyrazol-4-yl)propyl]-5-(3,5-difluoro-2-pyridyl)isoxazole-3-carboxamide] | – | ≥ 80% | ≥ 80% | ≥ 80% | ≥ 80% | ≥ 80% | ≥ 80% | ≥ 80% | –
3 | Cn1cc(C(C)(CNC(=O)c2nnc(-c3ncc(F)cc3F)s2)c2cccc(C#N)n2)cn1 (centres unmarked) [X.14, N-[2-(6-cyano-2-pyridyl)-2-(1-methylpyrazol-4-yl)propyl]-5-(3,5-difluoro-2-pyridyl)-1,3,4-thiadiazole-2-carboxamide] | – | ≥ 80% | ≥ 80% | ≥ 80% | – | – | – | ≥ 80% | ≥ 80%
4 | Cn1cc(C(C)(CNC(=O)c2nnc(-c3ncc(F)cc3F)s2)c2cccc(Cl)n2)cn1 (centres unmarked) [X.15, N-[2-(6-chloro-2-pyridyl)-2-(1-methylpyrazol-4-yl)propyl]-5-(3,5-difluoro-2-pyridyl)-1,3,4-thiadiazole-2-carboxamide] | – | ≥ 80% | ≥ 80% | ≥ 80% | ≥ 80% | ≥ 80% | ≥ 80% | ≥ 80% | ≥ 80%
5 | Cn1cc(C(C)(CNC(=O)c2nnc(-c3ccc(F)nc3F)s2)c2cccc(Cl)n2)cn1 (centres unmarked) [X.16, N-[2-(6-chloro-2-pyridyl)-2-(1-methylpyrazol-4-yl)propyl]-5-(2,6-difluoro-3-pyridyl)-1,3,4-thiadiazole-2-carboxamide] | – | ≥ 80% | ≥ 80% | – | – | ≥ 80% | ≥ 80% | ≥ 80% | –
